Patent publication US10925283B2, “Microbiocidal phenylamidine derivatives” (SYNGENTA PARTICIPATIONS AG, priority 2016, dated 2021)

What was measured:
Assay type in all cases: in vivo
[1] = test system: Phakopsora pachyrhizi; experiment: Phakopsora pachyrhizi / soybean / preventative (soybean rust); conditions: foliar, soybean leaf disks, inoculated one day after application, assessed 12-14 days after application, read-out: control of Phakopsora pachyrhizi (percent disease control compared to untreated)
Description: Phakopsora pachyrhizi/Soybean/Preventative (Soybean Rust) Soybean leaf disks are placed on water agar in multiwell plates (24-well format) and sprayed with the formulated test compound diluted in water. One day after application leaf discs are inoculated by spraying a spore suspension on the lower leaf surface. After an incubation period in a climate cabinet of 24-36 hours in darkness at 20° C. and 75% rh leaf disc are kept at 20° C. with 12 h light/day and 75% rh. The activity of a compound is assessed as percent disease control compared to untreated when an appropriate level of disease damage appears in untreated check leaf disks (12-14 days after application).

[2] = test system: Puccinia recondita f. sp. tritici; experiment: Puccinia recondita f. sp. tritici / wheat / leaf disc curative (brown rust); conditions: foliar, wheat leaf segments cv. Kanzler, compound applied 1 day after inoculation, assessed 6-8 days after application, read-out: control of Puccinia recondita f. sp. tritici (percent disease control compared to untreated)
Description: Puccinia recondita f. Sp. Tritici/Wheat/Leaf Disc Curative (Brown Rust) Wheat leaf segments cv. Kanzler are placed on agar in multiwell plates (24-well format). The leaf segments are inoculated with a spore suspension of the fungus. Plates are stored in darkness at 19° C. and 75% rh. The formulated test compound diluted in water is applied 1 day after inoculation. The leaf segments are incubated at 19° C. and 75% rh under a light regime of 12 h light/12 h darkness in a climate cabinet and the activity of a compound is assessed as percent disease control compared to untreated when an appropriate level of disease damage appears in untreated check leaf segments (6-8 days after application).

[3] = test system: Blumeria graminis f. sp. tritici (Erysiphe graminis f. sp. tritici); experiment: Blumeria graminis f. sp. tritici / wheat / leaf disc preventative (powdery mildew on wheat); conditions: foliar, wheat leaf segments cv. Kanzler, inoculated 1 day after application, assessed 6-8 days after application, read-out: control of Blumeria graminis f. sp. tritici (percent disease control compared to untreated)
Description: Blumeria graminis f. sp. tritici (Erysiphe graminis f. sp. tritici)/Wheat/Leaf Disc Preventative (Powdery Mildew on Wheat) Wheat leaf segments cv. Kanzler are placed on agar in a multiwell plate (24-well format) and sprayed with the formulated test compound diluted in water. The leaf disks are inoculated by shaking powdery mildew infected plants above the test plates 1 day after application. The inoculated leaf disks are incubated at 20° C. and 60% rh under a light regime of 24 h darkness followed by 12 h light/12 h darkness in a climate chamber and the activity of a compound is assessed as percent disease control compared to untreated when an appropriate level of disease damage appears on untreated check leaf segments (6-8 days after application).

[4] = test system: Puccinia recondita f. sp. tritici; experiment: Puccinia recondita f. sp. tritici / wheat / leaf disc preventative (brown rust); conditions: foliar, wheat leaf segments cv. Kanzler, inoculated 1 day after application, assessed 7-9 days after application, read-out: control of Puccinia recondita f. sp. tritici (percent disease control compared to untreated)
Description: Puccinia recondita f. Sp. Tritici/Wheat/Leaf Disc Preventative (Brown Rust) Wheat leaf segments cv. Kanzler are placed on agar in multiwell plates (24-well format) and sprayed with the formulated test compound diluted in water. The leaf disks are inoculated with a spore suspension of the fungus 1 day after application. The inoculated leaf segments are incubated at 19° C. and 75% rh under a light regime of 12 h light/12 h darkness in a climate cabinet and the activity of a compound is assessed as percent disease control compared to untreated when an appropriate level of disease damage appears in untreated check leaf segments (7-9 days after application).

Measured: pest or weed control at 200 ppm

CCCCOCC(O)(c1cc(C)c(/N=C/N(C)CC)cc1OC)C(F)(F)F (stereo not shown) [E.013, N′-[4-[1-(butoxymethyl)-2,2,2-trifluoro-1-hydroxy-ethyl]-5-methoxy-2-methyl-phenyl]-N-ethyl-N-methyl-formamidine]
≥ 80%: all assays above

CCCOCC(O)(c1cc(C)c(/N=C/N(C)CC)cc1OC)C(F)(F)F (stereo not shown) [E.014, N-ethyl-N′-[5-methoxy-2-methyl-4-[2,2,2-trifluoro-1-hydroxy-1-(propoxymethyl)ethyl]phenyl]-N-methyl-formamidine]
≥ 80%: all assays above

CCOCCOCC(O)(c1cc(C)c(/N=C/N(C)CC)cc1OC)C(F)(F)F (stereo not shown) [E.020, N′-[4-[1-(2-ethoxyethoxymethyl)-2,2,2-trifluoro-1-hydroxy-ethyl]-5-methoxy-2-methyl-phenyl]-N-ethyl-N-methyl-formamidine]
≥ 80%: all assays above

CCN(C)/C=N/c1cc(OC)c(C(O)(COCCc2ccccc2)C(F)(F)F)cc1C (stereo not shown) [E.021, N-ethyl-N′-[5-methoxy-2-methyl-4-[2,2,2-trifluoro-1-hydroxy-1-(2-phenylethoxymethyl)ethyl]phenyl]-N-methyl-formamidine]
≥ 80%: all assays above

CCN(C)/C=N/c1cc(OC)c(C(O)(COCc2ccc(C)cc2)C(F)(F)F)cc1C (stereo not shown) [E.027, N-ethyl-N′-[5-methoxy-2-methyl-4-[2,2,2-trifluoro-1-hydroxy-1-(p-tolylmethoxymethyl)ethyl]phenyl]-N-methyl-formamidine]
≥ 80%: all assays above

CCN(C)/C=N/c1cc(OC)c(C(O)(COC(C)c2ccccc2)C(F)(F)F)cc1C (stereo not shown) [E.028, N-ethyl-N′-[5-methoxy-2-methyl-4-[2,2,2-trifluoro-1-hydroxy-1-(1-phenylethoxymethyl)ethyl]phenyl]-N-methyl-formamidine]
≥ 80%: all assays above

CCN(C)/C=N/c1cc(OC)c(C(O)(CON=C(C)C)C(F)(F)F)cc1C (stereo not shown) [E.036, N-ethyl-N′-[5-methoxy-2-methyl-4-[2,2,2-trifluoro-1-hydroxy-1-[(isopropylideneamino)oxymethyl]ethyl]phenyl]-N-methyl-formamidine]
≥ 80%: all assays above

CCN(C)/C=N/c1cc(OC)c(C(O)(CON=C2CCCCC2)C(F)(F)F)cc1C (stereo not shown) [E.037, N′-[4-[1-[(cyclohexylideneamino)oxymethyl]-2,2,2-trifluoro-1-hydroxy-ethyl]-5-methoxy-2-methyl-phenyl]-N-ethyl-N-methyl-formamidine]
≥ 80%: all assays above

CCN(C)/C=N/c1cc(OC)c(C(O)(COC2CCCCC2)C(F)(F)F)cc1C (stereo not shown) [E.039, N′-[4-[1-(cyclohexoxymethyl)-2,2,2-trifluoro-1-hydroxy-ethyl]-5-methoxy-2-methyl-phenyl]-N-ethyl-N-methyl-formamidine]
≥ 80%: all assays above

CC#CCOCC(O)(c1cc(C)c(/N=C/N(C)CC)cc1OC)C(F)(F)F (stereo not shown) [E.040, N′-[4-[1-(but-2-ynoxymethyl)-2,2,2-trifluoro-1-hydroxy-ethyl]-5-methoxy-2-methyl-phenyl]-N-ethyl-N-methyl-formamidine]
≥ 80%: all assays above

C#CCOCC(O)(c1cc(C)c(/N=C/N(C)CC)cc1OC)C(F)(F)F (stereo not shown) [E.041, N-ethyl-N′-[5-methoxy-2-methyl-4-[2,2,2-trifluoro-1-hydroxy-1-(prop-2-ynoxymethyl)ethyl]phenyl]-N-methyl-formamidine]
≥ 80%: all assays above

CCN(C)/C=N/c1cc(OC)c(C(O)(COC2CCC(C)CC2)C(F)(F)F)cc1C (stereo not shown) [E.042, N-ethyl-N′-[5-methoxy-2-methyl-4-[2,2,2-trifluoro-1-hydroxy-1-[(4-methylcyclohexoxy)methyl]ethyl]phenyl]-N-methyl-formamidine]
≥ 80%: all assays above

CCN(C)/C=N/c1cc(OC)c(C(O)(COCC(C)C)C(F)(F)F)cc1C (stereo not shown) [E.046, N-ethyl-N′-[5-methoxy-2-methyl-4-[2,2,2-trifluoro-1-hydroxy-1-(isobutoxymethyl)ethyl]phenyl]-N-methyl-formamidine]
≥ 80%: all assays above

CCN(C)/C=N/c1cc(OC)c(C(O)(COc2ccccc2)C(F)(F)F)cc1C (stereo not shown) [E.047, N-ethyl-N′-[5-methoxy-2-methyl-4-[2,2,2-trifluoro-1-hydroxy-1-(phenoxymethyl)ethyl]phenyl]-N-methyl-formamidine]
≥ 80%: all assays above

CC#CCOCCC(O)(c1cc(C)c(/N=C/N(C)CC)cc1OC)C(F)(F)F (stereo not shown) [E.049, N′-[4-[3-but-2-ynoxy-1-hydroxy-1-(trifluoromethyl)propyl]-5-methoxy-2-methyl-phenyl]-N-ethyl-N-methyl-formamidine]
≥ 80%: all assays above

C#CCOCCC(O)(c1cc(C)c(/N=C/N(C)CC)cc1OC)C(F)(F)F (stereo not shown) [E.050, N-ethyl-N′-[4-[1-hydroxy-3-prop-2-ynoxy-1-(trifluoromethyl)propyl]-5-methoxy-2-methyl-phenyl]-N-methyl-formamidine]
≥ 80%: all assays above

CCN(C)/C=N/c1cc(OC)c(C(O)(CCOCc2ccccc2)C(F)(F)F)cc1C (stereo not shown) [E.051, N′-[4-[3-benzyloxy-1-hydroxy-1-(trifluoromethyl)propyl]-5-methoxy-2-methyl-phenyl]-N-ethyl-N-methyl-formamidine]
≥ 80%: all assays above

CCCOCCC(O)(c1cc(C)c(/N=C/N(C)CC)cc1OC)C(F)(F)F (stereo not shown) [E.052, N-ethyl-N′-[4-[1-hydroxy-3-propoxy-1-(trifluoromethyl)propyl]-5-methoxy-2-methyl-phenyl]-N-methyl-formamidine]
≥ 80%: all assays above

CCN(C)/C=N/c1cc(OC)c(C(O)(CCOc2ccc(F)cc2)C(F)(F)F)cc1C (stereo not shown) [E.053, N-ethyl-N′-[4-[3-(4-fluorophenoxy)-1-hydroxy-1-(trifluoromethyl)propyl]-5-methoxy-2-methyl-phenyl]-N-methyl-formamidine]
≥ 80%: all assays above
